# Test results: patent US6579536B1, “Sustained-release pharmaceutical preparation containing tilidine mesylate as active ingredient” (Hexal AG, priority 1998, dated 2003)
# Test: Stability of tilidine mesylate in solid form, in combination with solid additives
substance,measurement,value
tilidine mesylate,decomposition in the solid form (stability),virtually does not undergo any decomposition
